According to ChEMBL document CHEMBL5291721, “A preclinical secondary pharmacology resource illuminates target-adverse drug reaction associations of marketed drugs” (Nat Commun, 2023):

Assays:
D(1A) dopamine receptor [1] = target: T1, D(1A) dopamine receptor (Homo sapiens, UniProt P21728); type: functional, cell-based
Androgen receptor = target: T2, Androgen receptor (Rattus norvegicus, UniProt P15207); type: functional
T2 sequence (P15207 whole entry): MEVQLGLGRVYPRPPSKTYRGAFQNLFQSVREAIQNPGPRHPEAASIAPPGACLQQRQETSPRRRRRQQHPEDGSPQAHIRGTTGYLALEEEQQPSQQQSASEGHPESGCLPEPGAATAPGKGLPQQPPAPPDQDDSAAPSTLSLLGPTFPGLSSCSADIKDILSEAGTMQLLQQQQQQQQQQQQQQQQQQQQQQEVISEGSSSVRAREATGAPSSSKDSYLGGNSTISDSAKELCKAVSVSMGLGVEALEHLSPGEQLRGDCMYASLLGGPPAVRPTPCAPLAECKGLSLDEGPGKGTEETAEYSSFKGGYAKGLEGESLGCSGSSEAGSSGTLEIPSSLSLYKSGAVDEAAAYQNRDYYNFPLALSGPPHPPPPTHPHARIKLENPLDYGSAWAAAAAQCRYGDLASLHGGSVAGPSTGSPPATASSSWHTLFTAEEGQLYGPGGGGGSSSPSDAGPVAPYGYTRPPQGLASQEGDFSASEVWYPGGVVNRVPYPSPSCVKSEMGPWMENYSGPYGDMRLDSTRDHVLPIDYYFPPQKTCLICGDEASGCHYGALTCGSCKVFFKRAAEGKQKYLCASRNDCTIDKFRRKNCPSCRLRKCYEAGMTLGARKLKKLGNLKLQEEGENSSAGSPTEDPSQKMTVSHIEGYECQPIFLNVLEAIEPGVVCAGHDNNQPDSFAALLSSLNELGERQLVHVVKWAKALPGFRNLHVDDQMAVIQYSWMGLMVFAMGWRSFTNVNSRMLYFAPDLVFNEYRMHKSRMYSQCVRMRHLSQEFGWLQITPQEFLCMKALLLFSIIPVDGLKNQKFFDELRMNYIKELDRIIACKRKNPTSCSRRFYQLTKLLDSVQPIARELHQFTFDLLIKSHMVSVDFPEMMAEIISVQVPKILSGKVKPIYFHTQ

[2] = target: Epidermal growth factor receptor (Homo sapiens, UniProt P00533); type: functional
[3] = target: Receptor tyrosine-protein kinase erbB-2 (Homo sapiens, UniProt P04626); type: functional
Chain of Receptor tyrosine-protein kinase erbB-2 (P04626 whole entry): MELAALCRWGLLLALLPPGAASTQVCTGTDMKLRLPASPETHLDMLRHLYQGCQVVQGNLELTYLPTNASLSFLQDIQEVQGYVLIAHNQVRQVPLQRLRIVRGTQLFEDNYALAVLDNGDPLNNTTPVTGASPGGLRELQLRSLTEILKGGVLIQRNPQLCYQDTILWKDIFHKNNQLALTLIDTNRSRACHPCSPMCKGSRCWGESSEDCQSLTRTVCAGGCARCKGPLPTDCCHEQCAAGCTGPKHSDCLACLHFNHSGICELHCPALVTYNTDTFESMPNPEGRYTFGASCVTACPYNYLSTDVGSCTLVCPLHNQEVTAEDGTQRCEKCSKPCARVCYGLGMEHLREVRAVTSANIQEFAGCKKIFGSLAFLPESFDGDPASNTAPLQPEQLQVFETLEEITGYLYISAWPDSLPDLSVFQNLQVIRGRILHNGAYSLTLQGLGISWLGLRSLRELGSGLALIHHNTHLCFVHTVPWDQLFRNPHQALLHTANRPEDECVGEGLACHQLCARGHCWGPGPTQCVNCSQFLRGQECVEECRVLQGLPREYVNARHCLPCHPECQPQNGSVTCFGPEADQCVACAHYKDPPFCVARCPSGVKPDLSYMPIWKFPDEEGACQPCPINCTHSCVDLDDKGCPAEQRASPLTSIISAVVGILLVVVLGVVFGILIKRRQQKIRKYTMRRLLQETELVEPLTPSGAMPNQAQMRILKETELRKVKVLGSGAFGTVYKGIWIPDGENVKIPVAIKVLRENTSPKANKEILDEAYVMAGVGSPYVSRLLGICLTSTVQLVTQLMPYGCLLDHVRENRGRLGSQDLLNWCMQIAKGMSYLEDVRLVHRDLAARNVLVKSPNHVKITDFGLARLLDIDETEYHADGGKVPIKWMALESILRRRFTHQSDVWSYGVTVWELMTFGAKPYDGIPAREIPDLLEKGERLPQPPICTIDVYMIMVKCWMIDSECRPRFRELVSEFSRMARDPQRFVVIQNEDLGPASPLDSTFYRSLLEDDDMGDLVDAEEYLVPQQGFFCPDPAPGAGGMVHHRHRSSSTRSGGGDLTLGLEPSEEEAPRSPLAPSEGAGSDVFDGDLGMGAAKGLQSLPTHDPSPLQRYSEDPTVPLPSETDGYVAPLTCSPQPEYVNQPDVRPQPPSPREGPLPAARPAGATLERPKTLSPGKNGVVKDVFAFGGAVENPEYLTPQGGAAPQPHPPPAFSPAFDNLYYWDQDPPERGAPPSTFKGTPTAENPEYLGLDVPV

Acetylcholinesterase = Acetylcholinesterase (Homo sapiens, UniProt P22303); type: functional
Chain of Acetylcholinesterase (P22303 whole entry): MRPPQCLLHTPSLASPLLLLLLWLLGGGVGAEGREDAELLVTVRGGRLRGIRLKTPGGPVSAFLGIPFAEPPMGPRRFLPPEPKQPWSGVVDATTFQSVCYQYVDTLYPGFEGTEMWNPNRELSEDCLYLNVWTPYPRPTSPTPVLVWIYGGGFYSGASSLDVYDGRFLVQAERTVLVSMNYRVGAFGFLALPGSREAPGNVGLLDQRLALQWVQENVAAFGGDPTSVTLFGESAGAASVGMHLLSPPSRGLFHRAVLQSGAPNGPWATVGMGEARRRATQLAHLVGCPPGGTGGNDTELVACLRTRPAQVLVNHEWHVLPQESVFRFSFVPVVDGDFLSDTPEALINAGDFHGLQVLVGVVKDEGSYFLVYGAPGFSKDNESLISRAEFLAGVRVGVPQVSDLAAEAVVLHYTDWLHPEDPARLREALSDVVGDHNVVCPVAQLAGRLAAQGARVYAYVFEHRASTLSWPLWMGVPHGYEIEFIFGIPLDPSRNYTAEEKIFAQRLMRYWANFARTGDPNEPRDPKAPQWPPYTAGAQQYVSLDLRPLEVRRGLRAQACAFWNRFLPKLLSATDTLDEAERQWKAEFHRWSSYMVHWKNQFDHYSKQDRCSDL

[4] = target: 5-hydroxytryptamine receptor 5A (Homo sapiens, UniProt P47898)
Chain of 5-hydroxytryptamine receptor 5A (P47898 whole entry): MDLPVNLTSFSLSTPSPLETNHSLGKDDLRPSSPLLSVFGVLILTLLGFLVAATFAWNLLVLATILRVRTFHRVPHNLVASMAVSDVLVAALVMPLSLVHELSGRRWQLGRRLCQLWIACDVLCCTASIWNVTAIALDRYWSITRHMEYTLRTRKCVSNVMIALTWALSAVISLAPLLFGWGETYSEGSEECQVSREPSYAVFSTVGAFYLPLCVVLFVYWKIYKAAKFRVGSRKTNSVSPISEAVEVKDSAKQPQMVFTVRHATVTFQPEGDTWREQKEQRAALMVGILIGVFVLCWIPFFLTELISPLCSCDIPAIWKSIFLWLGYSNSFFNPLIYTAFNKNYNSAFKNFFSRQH

[5] = target: T3, Muscarinic acetylcholine receptor M4 (Homo sapiens, UniProt P08173)
T3 sequence (P08173 whole entry): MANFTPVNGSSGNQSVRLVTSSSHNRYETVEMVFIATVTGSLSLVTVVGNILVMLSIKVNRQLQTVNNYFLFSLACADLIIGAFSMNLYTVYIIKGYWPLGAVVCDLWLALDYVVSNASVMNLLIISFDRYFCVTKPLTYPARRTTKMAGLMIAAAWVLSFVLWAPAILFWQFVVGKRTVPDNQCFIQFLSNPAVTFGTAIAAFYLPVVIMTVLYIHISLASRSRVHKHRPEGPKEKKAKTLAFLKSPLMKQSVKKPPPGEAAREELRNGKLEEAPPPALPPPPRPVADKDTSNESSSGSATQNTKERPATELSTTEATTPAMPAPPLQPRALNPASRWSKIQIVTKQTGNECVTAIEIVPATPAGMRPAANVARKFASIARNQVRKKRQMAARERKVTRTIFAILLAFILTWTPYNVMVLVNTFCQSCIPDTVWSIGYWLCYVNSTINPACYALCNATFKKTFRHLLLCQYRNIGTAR

[6] = target: Rod cGMP-specific 3',5'-cyclic phosphodiesterase subunit alpha (Homo sapiens, UniProt P16499); type: functional
Chain of Rod cGMP-specific 3',5'-cyclic phosphodiesterase subunit alpha (P16499 whole entry): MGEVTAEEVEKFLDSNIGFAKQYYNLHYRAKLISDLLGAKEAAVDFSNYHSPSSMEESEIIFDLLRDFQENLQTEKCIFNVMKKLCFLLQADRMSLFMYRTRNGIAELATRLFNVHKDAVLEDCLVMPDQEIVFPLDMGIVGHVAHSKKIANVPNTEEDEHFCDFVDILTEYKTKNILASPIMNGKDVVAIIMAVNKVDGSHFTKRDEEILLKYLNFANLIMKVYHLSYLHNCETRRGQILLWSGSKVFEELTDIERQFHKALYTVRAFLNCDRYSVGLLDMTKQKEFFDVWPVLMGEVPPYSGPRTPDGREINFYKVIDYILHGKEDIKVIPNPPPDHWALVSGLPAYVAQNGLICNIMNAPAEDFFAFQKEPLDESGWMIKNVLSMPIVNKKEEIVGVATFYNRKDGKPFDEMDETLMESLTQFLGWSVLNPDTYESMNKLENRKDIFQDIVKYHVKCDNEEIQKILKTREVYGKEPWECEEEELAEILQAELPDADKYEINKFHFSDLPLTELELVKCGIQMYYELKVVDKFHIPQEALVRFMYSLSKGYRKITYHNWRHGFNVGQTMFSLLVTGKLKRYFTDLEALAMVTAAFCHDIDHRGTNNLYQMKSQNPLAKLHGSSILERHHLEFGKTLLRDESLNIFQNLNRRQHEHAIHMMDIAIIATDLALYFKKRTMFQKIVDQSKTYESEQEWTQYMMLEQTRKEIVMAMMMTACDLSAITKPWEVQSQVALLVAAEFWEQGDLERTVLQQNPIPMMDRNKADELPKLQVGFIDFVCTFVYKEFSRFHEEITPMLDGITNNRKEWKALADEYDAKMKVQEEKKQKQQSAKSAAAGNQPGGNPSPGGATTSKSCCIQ

D(1B) dopamine receptor = D(1B) dopamine receptor (Homo sapiens, UniProt P21918)
Chain of D(1B) dopamine receptor (P21918 whole entry): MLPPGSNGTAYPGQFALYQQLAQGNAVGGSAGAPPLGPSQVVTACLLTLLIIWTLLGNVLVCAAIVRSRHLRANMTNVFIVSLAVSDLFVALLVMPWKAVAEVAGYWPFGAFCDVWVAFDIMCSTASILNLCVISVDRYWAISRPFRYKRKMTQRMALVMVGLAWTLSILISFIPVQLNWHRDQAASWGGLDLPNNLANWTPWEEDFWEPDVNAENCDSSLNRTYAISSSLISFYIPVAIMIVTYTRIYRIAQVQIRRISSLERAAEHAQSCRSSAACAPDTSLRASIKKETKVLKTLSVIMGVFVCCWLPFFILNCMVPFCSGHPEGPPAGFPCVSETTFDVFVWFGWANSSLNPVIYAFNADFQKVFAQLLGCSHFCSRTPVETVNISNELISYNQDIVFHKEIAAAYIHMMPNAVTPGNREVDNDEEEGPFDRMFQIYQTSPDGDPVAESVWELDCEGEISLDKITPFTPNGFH

D(1A) dopamine receptor [7] = target: T1, D(1A) dopamine receptor
[8] = target: T4, Muscarinic acetylcholine receptor M2 (Homo sapiens, UniProt P08172)
T4 sequence (P08172 whole entry): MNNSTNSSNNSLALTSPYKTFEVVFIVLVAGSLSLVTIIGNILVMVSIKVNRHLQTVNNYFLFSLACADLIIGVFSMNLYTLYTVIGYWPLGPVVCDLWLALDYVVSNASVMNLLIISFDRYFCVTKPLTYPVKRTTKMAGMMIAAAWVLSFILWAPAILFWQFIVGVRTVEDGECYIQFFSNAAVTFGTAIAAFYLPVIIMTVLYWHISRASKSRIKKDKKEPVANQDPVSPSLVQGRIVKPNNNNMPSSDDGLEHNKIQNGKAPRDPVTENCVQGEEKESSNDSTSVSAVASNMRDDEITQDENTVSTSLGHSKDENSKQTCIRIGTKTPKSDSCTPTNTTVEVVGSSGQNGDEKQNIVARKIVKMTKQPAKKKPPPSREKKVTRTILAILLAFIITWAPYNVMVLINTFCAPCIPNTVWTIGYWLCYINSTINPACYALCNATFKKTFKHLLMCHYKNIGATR

[9] = target: T5, Alpha-1A adrenergic receptor (Homo sapiens, UniProt P35348)
T5 sequence (P35348 whole entry): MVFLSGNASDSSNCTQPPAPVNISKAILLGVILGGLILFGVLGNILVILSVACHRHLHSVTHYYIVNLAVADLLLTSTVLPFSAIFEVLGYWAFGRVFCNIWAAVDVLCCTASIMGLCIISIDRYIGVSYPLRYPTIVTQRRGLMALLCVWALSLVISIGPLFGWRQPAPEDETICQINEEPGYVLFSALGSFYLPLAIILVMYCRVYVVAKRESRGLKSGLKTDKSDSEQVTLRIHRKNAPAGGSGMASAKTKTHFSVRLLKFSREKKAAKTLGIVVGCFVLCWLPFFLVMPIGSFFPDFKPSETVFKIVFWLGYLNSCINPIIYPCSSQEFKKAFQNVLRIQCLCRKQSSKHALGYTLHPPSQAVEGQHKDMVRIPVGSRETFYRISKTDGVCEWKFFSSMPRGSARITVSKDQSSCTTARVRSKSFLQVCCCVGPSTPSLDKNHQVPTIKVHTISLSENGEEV

Histamine H1 receptor = Histamine H1 receptor (Homo sapiens, UniProt P35367); type: functional, cell-based
Chain of Histamine H1 receptor (P35367 whole entry): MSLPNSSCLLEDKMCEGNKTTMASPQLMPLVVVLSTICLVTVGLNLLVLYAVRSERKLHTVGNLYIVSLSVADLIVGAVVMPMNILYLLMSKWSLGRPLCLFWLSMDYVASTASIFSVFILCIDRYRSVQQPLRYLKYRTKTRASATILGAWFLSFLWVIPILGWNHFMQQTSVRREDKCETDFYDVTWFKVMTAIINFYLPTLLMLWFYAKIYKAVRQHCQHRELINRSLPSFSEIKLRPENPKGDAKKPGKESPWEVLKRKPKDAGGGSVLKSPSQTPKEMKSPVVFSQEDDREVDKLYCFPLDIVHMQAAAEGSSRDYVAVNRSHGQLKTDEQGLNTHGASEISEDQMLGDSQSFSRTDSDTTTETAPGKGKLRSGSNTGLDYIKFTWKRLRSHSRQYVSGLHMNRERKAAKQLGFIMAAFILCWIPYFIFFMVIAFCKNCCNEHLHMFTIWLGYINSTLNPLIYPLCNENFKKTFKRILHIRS

D(1A) dopamine receptor [10] = target: T1, D(1A) dopamine receptor; remark: listed apart in the source
Further: assay procedure not described here.

T1 sequence (P21728 whole entry): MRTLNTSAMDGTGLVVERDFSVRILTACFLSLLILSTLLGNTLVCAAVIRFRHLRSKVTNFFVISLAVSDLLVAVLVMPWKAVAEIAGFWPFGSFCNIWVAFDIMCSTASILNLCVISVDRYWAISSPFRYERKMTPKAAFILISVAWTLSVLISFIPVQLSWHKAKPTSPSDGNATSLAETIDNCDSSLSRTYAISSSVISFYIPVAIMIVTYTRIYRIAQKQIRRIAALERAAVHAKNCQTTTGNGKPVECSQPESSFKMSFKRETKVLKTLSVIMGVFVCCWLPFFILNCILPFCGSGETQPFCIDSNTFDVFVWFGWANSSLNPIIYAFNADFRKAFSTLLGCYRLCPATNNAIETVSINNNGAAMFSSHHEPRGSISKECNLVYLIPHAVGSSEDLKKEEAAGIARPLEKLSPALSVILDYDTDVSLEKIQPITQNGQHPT

CO/N=C(\C(=O)N[C@@H]1C(=O)N2C(C(=O)[O-])=C(C[N+]3(C)CCCC3)CS[C@H]12)c1csc(N)n1
AC50 (D(1A) dopamine receptor [1]): > 300 µM | AC50 (Androgen receptor): > 30 µM | AC50 [2]: > 300 µM | AC50 [3]: > 300 µM | AC50 (Acetylcholinesterase): > 300 µM

COC(=O)N[C@H](C(=O)N1CCC[C@H]1c1nc(-c2ccc(-c3ccc(-c4c[nH]c([C@@H]5CCCN5C(=O)[C@@H](NC(=O)OC)C(C)C)n4)cc3)cc2)c[nH]1)C(C)C
AC50 (Androgen receptor): > 30 µM

CCOC(=O)[C@H](CCc1ccccc1)N[C@@H](C)C(=O)N1CCC[C@H]1C(=O)O
AC50 [4]: > 10 µM | AC50 [5]: > 10 µM | AC50 [6]: > 10 µM | AC50 (D(1B) dopamine receptor): > 10 µM

Nc1nc(N)c2nc(-c3ccccc3)c(N)nc2n1
AC50 [4]: > 10 µM | AC50 [5]: > 10 µM | AC50 [6]: > 10 µM | AC50 (D(1A) dopamine receptor [7]): > 30 µM | AC50 (D(1B) dopamine receptor): > 10 µM | AC50 (Androgen receptor): > 3 µM | AC50 [8]: > 30 µM

CC(=O)c1ccc2c(c1)N(CCCN1CCN(CCO)CC1)c1ccccc1S2 [ACETOPHENAZINE]
AC50 (D(1A) dopamine receptor [1]): 1.11 µM | AC50 (D(1A) dopamine receptor [7]): 0.1 µM

Oc1ncnc2[nH]ncc12 [ALLOPURINOL]
AC50 (D(1A) dopamine receptor [7]): > 30 µM | AC50 [8]: > 30 µM

CC(=O)OCC(=O)[C@@]1(O)CC[C@H]2[C@@H]3CCC4=CC(=O)CC[C@]4(C)[C@H]3C(=O)C[C@@]21C [CORTISONE ACETATE]
AC50 [9]: > 30 µM

COC(=O)[C@@H]1CC2=CC(=O)CC[C@]2(C)[C@@]23O[C@@H]2C[C@@]2(C)[C@@H](CC[C@@]24CCC(=O)O4)[C@H]13 [EPLERENONE]
AC50 (Histamine H1 receptor): > 30 µM | AC50 (D(1A) dopamine receptor [1]): > 30 µM | AC50 [2]: > 30 µM | AC50 [3]: > 30 µM | AC50 (Acetylcholinesterase): > 30 µM

CCC(=O)O[C@H]1[C@H](O[C@@H]2[C@@H](C)[C@H](O[C@H]3C[C@@](C)(OC)[C@@H](O)[C@H](C)O3)[C@@H](C)C(=O)O[C@H](CC)[C@@](C)(O)[C@H](O)[C@@H](C)C(=O)[C@H](C)C[C@@]2(C)O)O[C@H](C)C[C@@H]1N(C)C [ERYTHROMYCIN PROPIONATE]
AC50 (D(1A) dopamine receptor [10]): 17 µM | AC50 [9]: > 30 µM

C#C[C@]1(O)CC[C@H]2[C@@H]3CCc4cc(O)ccc4[C@H]3CC[C@@]21C [ETHINYL ESTRADIOL]
AC50 [4]: > 30 µM

NC(N)=Nc1nc(CSCCC(N)=NS(N)(=O)=O)cs1 [FAMOTIDINE]
AC50 [4]: > 10 µM | AC50 [5]: > 10 µM | AC50 [6]: > 10 µM | AC50 (D(1B) dopamine receptor): > 10 µM

CC(C)C(=O)Nc1ccc([N+](=O)[O-])c(C(F)(F)F)c1 [FLUTAMIDE]
AC50 (D(1A) dopamine receptor [7]): > 30 µM | AC50 [8]: > 30 µM

COc1ccc2c(c1)C(=O)N(CCc1ccc(S(=O)(=O)NC(=O)NC3CCCCC3)cc1)C(=O)C2(C)C [GLIQUIDONE]
AC50 (Androgen receptor): > 30 µM

NS(=O)(=O)c1cc2c(cc1Cl)NCNS2(=O)=O [HYDROCHLOROTHIAZIDE]
AC50 [4]: > 10 µM | AC50 [5]: > 10 µM | AC50 [6]: > 10 µM | AC50 (D(1B) dopamine receptor): > 10 µM

CC(C)Cc1ccc(CC(=O)O)cc1 [IBUFENAC]
AC50 (D(1A) dopamine receptor [1]): > 30 µM | AC50 [2]: > 30 µM | AC50 [3]: > 30 µM | AC50 (Acetylcholinesterase): > 30 µM

CC(C)NNC(=O)c1ccncc1 [IPRONIAZID]
AC50 (D(1A) dopamine receptor [1]): > 30 µM | AC50 [2]: > 30 µM | AC50 [3]: > 30 µM | AC50 (Acetylcholinesterase): > 30 µM

OC[C@@H](O)[C@@H](O)[C@H](O)[C@H](O)CO [MANNITOL]
AC50 (D(1A) dopamine receptor [10]): > 30 µM | AC50 [9]: > 30 µM

CC(C(=O)O)c1ccc(N2CC=CC2)c(Cl)c1 (centres undefined) [PIRPROFEN]
AC50 (Histamine H1 receptor): > 30 µM

NC(=O)c1cnccn1 [PYRAZINAMIDE]
AC50 (D(1A) dopamine receptor [7]): > 30 µM | AC50 [8]: > 30 µM

Cc1cc2c(cc1CC(=O)c1sccc1S(=O)(=O)Nc1onc(C)c1Cl)OCO2 [SITAXENTAN]
AC50 (D(1A) dopamine receptor [10]): > 30 µM | AC50 [9]: > 30 µM

CCCS(=O)(=O)Nc1ccc(F)c(C(=O)c2c[nH]c3ncc(-c4ccc(Cl)cc4)cc23)c1F [VEMURAFENIB]
AC50 (Androgen receptor): > 30 µM

O=C(CCCCCCC(=O)Nc1ccccc1)NO [VORINOSTAT]
AC50 (Histamine H1 receptor): > 30 µM | AC50 [5]: > 10 µM
